One data set relates to emesis in ferrets. Put plainly: Ferret emesis: PDE4 inhibitors and alpha-2 adrenoreceptor agonists/antagonists. The following applies: for emesis following administration of the drug itself: route not stated.
Data set [1] relates to PDE IV inhibitor-induced emesis in the ferret. Put plainly: Ferret emesis: PDE4 inhibitors and neurokinin-1 receptor antagonists. It counts as in vivo. The following applies: NK-1 antagonist given before oral emetic dose of PDE IV inhibitor. The protocol:
Ferret Emesis: PDE4 Inhibitors and Neurokinin-1 Receptor Antagonists
Intracerebroventricular (i.c.v.) administration was performed following a surgical implantation of an i.c.v. guide cannula. Under isoflurane anaesthesia, a 22 gauge stainless steel guide cannula (total length=20 mm) was lowered 9 mm below the surface of the skull, at the midline, 2 mm anterior to the cross-suture of the posterior edge of the skull. The tip of the guide cannula is then positioned 3-5 mm directly above the area postrema. The guide cannula was fixed to the skull using 2 screws and dental acrylic cement. The animals received antibiotic (Clamoxyl LA, SmithKline Beecham, Surrey, U.K.; 15 mg kg^−1 s.c.) and analgesic injections (Zenecarp, C-Vet Limited, Edmounds, U.K.; 5 mg kg^−1 s.c.) and were housed in individual cages. They were allowed at least 1 week to recover. Intracerebroventricular administration of drugs was performed by inserting an injection unit of 24-25 mm (level of the area postrema) or 27 mm (for brain tissue injection) length into the guide cannula and infusing 2 μl of the drug solution (or vehicle) over 1 minute. […]
Anti-emetic agents ondansetron (3 mg kg^−1 i.p.), and neurokinin-1 receptor antagonists (3 mg kg^−1 i.p. or s.c.) were administered 30 minutes prior to an oral challenge with an emetic dose of selected PDE IV inhibitors. […] The emetic response was monitored as described earlier. […]

Each structure is given as a SMILES string.

Source text for emesis in ferrets: Ferret Emesis: PDE4 Inhibitors and Alpha-2 Adrenoreceptor Agonists
Ferrets were pre-treated with the alpha2-adrenoceptor antagonist, yohimbine.

For the molecule `Clc1cccc(Cl)c1N=C1NCCN1` [clonidine], the “emesis induced by CT-2450” value in the data set with emesis in ferrets (250 μg kg−1 pre-treatment, CT-2450 30 mg kg−1 p.o., all animals treated) is “abolished”. Moreover, the “animals with complete protection against R-rolipram-induced emesis” value with emesis in ferrets (250 μg kg−1 pre-treatment, R-rolipram 3 mg kg−1 p.o.) is “two out of three”. For the same molecule, the “animals with complete protection against RS14203-induced emesis” value with emesis in ferrets (250 μg kg−1 pre-treatment, RS14203 1 mg kg−1 p.o.) is listed as “five out of six”. Besides, the “latency of onset of RS14203-induced emesis” value in the data set on emesis in ferrets (RS14203 1 mg kg−1 p.o. challenge) is given as “increased”. For the same molecule, the “number of retches and vomits induced by RS14203” value with emesis in ferrets (RS14203 1 mg kg−1 p.o. challenge, clonidine 62.5-250 μg kg−1) was “dose-dependently decreased”.

For the molecule `COC(=O)[C@@H]1[C@H]2C[C@H]3c4[nH]c5ccccc5c4CCN3C[C@@H]2CC[C@@H]1O` [yohimbine], the “emesis (retching and vomiting) induced by the drug itself” value with emesis in ferrets (intraperitoneal injection) is “induced retching and vomiting in all ferrets treated”.

Turning to `CS(=O)(=O)NCCN1C(=O)NC[C@]12CCN1CCc3c(oc4ccccc34)[C@@H]1C2` [MK-467], the “emesis following administration of the drug itself” value in the data set with emesis in ferrets is on record as “Emesis was also recorded”.

Take `CN1CC[C@]2(CCN3CCc4c(oc5ccccc45)[C@@H]3C2)N(C)C1=O.Cl` [MK-912]: the “emesis following administration of the drug itself” value in the data set with emesis in ferrets is reported as “Emesis was also recorded”.

Consider `COc1ccccc1CN[C@H]1CCCN[C@H]1c1ccccc1` [CP-99,994], for which the “effect on PDE IV inhibitor-induced emesis” value in data set [1] is reported as “abolished”.
